Results as given in patent publication US20250328351A1, “CARBONIC ANHYDRASE INHIBITORS AND ANTIBIOTICS AGAINST MULTIDRUG RESISTANT BACTERIA” (Purdue Research Foundation, priority 2018, published 2025).
Converted amounts (≈) assume the structure as drawn. Read-outs that look alike come from different tables or passages of the source.

Legend:
[1] = system: Enterococcus faecalis S613 HM-334; test: MIC, broth microdilution (CLSI); format: cell-based; details: Enterococcus faecalis, read-out: MIC
Protocol: (§1) The minimum inhibitory concentrations (MICs) of the compounds and control drugs were determined using the broth microdilution method, according to guidelines outlined by the Clinical and Laboratory Standards Institute (CLSI). Enterococci strains were grown aerobically overnight on tryptone soya agar plates at 37° C., afterwards a bacterial solution equivalent to 0.5 McFarland standard was prepared and diluted in tryptone soy broth (TSB) to achieve a bacterial concentration of about 5×10^5 CFU/mL and seeded in 96-well well plates. Compounds and control drugs were added in the first row of the 96-well plates and serially diluted along the plates. Plates were then incubated aerobically at 37° C. for 18-20 hours. MICs reported in Table 1 are the minimum concentration of the compounds/control drugs that could inhibit completely the visual growth of the bacteria.
(§2) The minimum inhibitory concentrations (MICs) of CAIs were tested against clinical isolates of vancomycin sensitive and vancomycin resistant Enterococci strains as per the guidelines provided by the Clinical and Laboratory Standards Institute (CLSI). The selected strains of Enterococci were streaked on Tryptic Soy Agar (TSA) plates and let grow for 24 hours at 37° C. Afterwards, a bacterial solution equivalent to 0.5 McFarland standard was prepared and diluted in tryptone soy broth (TSB) or brain heart infusion broth (BHIB) to achieve a bacterial concentration of about 5×10^5 CFU/mL and seeded in 96-well well plates. Compounds and control drugs were added in the first row of the 96-well plates and serially diluted along the plates. Plates were then incubated aerobically at 37° C. for 18-20 hours. MICs reported in Table 5 are the minimum concentration of the compounds/control drugs that could inhibit completely the visual growth of the bacteria.
The minimum inhibitory concentrations (MICs) of CAIs were tested against vancomycin resistant Enterococcus faecalis—S613 HM 334 strain as per the guidelines provided by the Clinical and Laboratory Standards Institute (CLSI). The selected strain was streaked on Tryptic Soy Agar (TSA) plate and let grow for 24 hours at 37° C. […] Compounds and control drugs were added in the first row of the 96-well plates and serially diluted along the plates. Plates were then incubated aerobically at 37° C. for 18-20 hours. MICs reported in table (6) are the minimum concentration of the compounds/control drugs that could inhibit completely the visual growth of the bacteria.

E. faecium NR 31909 = details: oral 20 mg/kg daily for 4 days
Description: Saline was used as a negative control. Mice were euthanized on day 5 and organs (liver, spleen and kidneys) were aseptically removed and homogenized, and viable VRE were enumerated by serial dilution and plating.

[2] = system: Bacteroides dorei CL02T12C06 HM-719; test: MIC against human normal gut microbiota; format: cell-based; details: Phocaeicola dorei; Table 3; BHIS broth, anaerobic, 48 hours; read-out: MIC
Protocol: (§3) Three different bacterial strains were used in this experiment; Bifidobacterium (anaerobic Gram positive bacteria), Bacteroides (anaerobic Gram negative bacteria) and Lactobacillus (microaerophilic Gram positive bacteria). Bifidobacterium and Bacteroides were first grown for 48 hours at 37° C., anaerobically using brain heart infusion supplemented (BHIS) agar (Brain heart infusion agar supplemented with hemin, vitamin K and L-cysteine). Lactobacillus was cultivated on MRS agar and incubated in presence of 5% CO2 for 48 hours at 37° C. Each bacterium was suspended in phosphate buffered saline (PBS) to produce a suspension with optical density that matches 0.5 McFarland standard and diluted in brain heart infusion supplemented broth (for Bifidobacterium and Bacteroides) or in MRS broth (for Lactobacillus) to achieve bacterial concentration of approximately 5×10^5 CFU/ml. Bacteria were then seeded in 96-well plates containing serial dilutions of the compounds and incubated as mentioned previously for 48 hours.

[3] = system: Bacteroides fragilis CL07T00C01 HM-709; test: MIC against human normal gut microbiota; format: cell-based; details: Table 3, BHIS broth, anaerobic, 48 hours, read-out: MIC
Protocol: as §3

[4] = system: Bifidobacterium breve JCP7499 HM 1120; test: MIC against human normal gut microbiota; format: cell-based; details: JCP7499HM1120, Table 3, BHIS broth, anaerobic, 48 hours, read-out: MIC
Protocol: as §3

[5] = system: vancomycin-resistant E. faecium; test: Mouse model of GI colonization by VRE; format: in vivo, C57BL/6 mice
Description: Feasibility in vivo study: AZM reduces VRE load in the intestines and faeces. The promising feature, and the specific and potent antimicrobial activity of CAIs, prompted us to evaluate the in vivo efficacy of AZM in our established mouse model of GI colonization by enterococci with features that mimic the antibiotic-induced enterococcal expansion observed in humans (Mohammad, H. et al., Int J Antimicrob Agents 2018, 51, 897-904; Abdelkhalek, A, et al., PLoS One 2018, 13, e0199710). We tested AZM (two clinical doses 10 and 20 mg/kg) in female 12-week-old C57BL/6 mice (n=5 mice per group) that were sensitized with ampicillin ([…] in drinking water) for 7 days to reduce the microbiota present in the gastrointestinal tract and colonized with 10^8 CFU/mL of vancomycin-resistant E. faecium.
We thought that the rapid absorption of AZM from the gastrointestinal tract would limit their exposure time to VRE present in the gastrointestinal tract.
Mice were treated for 8 days with 10 mg/kg of drugs by oral gavage.

Caco-2 cells = test: In vitro cytotoxicity, MTS assay; details: concentration up to 128 μg/mL; two hours incubation
Protocol: Method: Compounds AS005H, AS005J, AS004B, AS005K, AS005A and 005D were assayed (at concentrations of 64 and 128 μg/mL) against a human colorectal adenocarcinoma (Caco-2) cell to determine the potential toxic effect to mammalian cells in vitro. Briefly, cells were cultured in Dulbecco's Modified Eagle Medium (DMEM) supplemented with 20% fetal bovine serum (FBS), non-essential amino acids (1×), penicillin-streptomycin at 37° C. with CO2 (5%). Control cells received DMSO alone at a concentration equal to that in drug-treated cell samples. The cells were incubated with the compounds (in triplicate) in a 96-well plate at 37° C. with CO2 (5%) for two hours. The assay reagent MTS 3-(4,5-dimethylthiazol-2-yl)-5-(3-carboxymethoxyphenyl)-2-(4-sulfophenyl)-2H-tetrazolium) (Promega, Madison, WI, USA) was subsequently added and the plate was incubated for four hours. Absorbance readings (at OD490) were taken using a kinetic microplate reader (Molecular Devices, Sunnyvale, CA, USA). The quantity of viable cells after treatment with each compound was expressed as a percentage of the viability of DMSO-treated control cells (average of triplicate wells±standard deviation). The toxicity data was analyzed via a two-way ANOVA, with post hoc Dunnet's multiple comparisons test (P<0.05), utilizing GraphPad Prism 6.0 (GraphPad Software, La Jolla, CA).
Percent viable mammalian cells (measured as average absorbance ratio (test agent relative to DMSO) for cytotoxicity analysis of AS005H, AS005J, AS004B, AS005K, AS005A and 005D compounds (tested in triplicate) at 64 and 128 μg/mL against Caco-2 cells using the MTS 3-(4,5-dimethylthiazol-2-yl)-5-(3-carboxymethoxyphenyl)-2-(4-sulfophenyl)-2H-tetrazolium) assay. Dimethyl sulfoxide (DMSO) was used as a negative control to determine a baseline measurement for the cytotoxic impact of each compound. The absorbance values represent an average of a minimum of three samples analyzed for each compound. Error bars represent standard deviation values for the absorbance values. A two-way ANOVA, with post hoc Dunnet's multiple comparisons test, determined statistical difference (denoted by the asterisk) (P<0.05) between the values obtained for each compound and DMSO (negative control, used as solvent for the compounds).

VERO cells = test: In vitro cytotoxicity, MTS assay; format: cell-based, monkey; details: concentration up to 128 μg/mL; two hours incubation
Protocol: Toxicity assessment: Compounds AS005H, AS005J, AS004B, AS005K, AS005A and 005D were assayed (at concentrations of 64 and 128 μg/mL) against a fibroblast-like monkey kidney cell line (VERO cell) to determine the potential toxic effect in vitro. Briefly, cells were cultured in Minimum Essential Medium (MEM) supplemented with 10% fetal bovine serum (FBS), 1 mM sodium pyruvate, and penicillin-streptomycin at 37° C. with CO2 (5%). Control cells received DMSO alone at a concentration equal to that in drug-treated cell samples. The cells were incubated with the compounds (in triplicate) in a 96-well plate at 37° C. with CO2 (5%) for two hours. The assay reagent MTS 3-(4,5-dimethylthiazol-2-yl)-5-(3-carboxymethoxyphenyl)-2-(4-sulfophenyl)-2H-tetrazolium) (Promega, Madison, WI, USA) was subsequently added and the plate was incubated for four hours. Absorbance readings (at OD490) were taken using a kinetic microplate reader (Molecular Devices, Sunnyvale, CA, USA). The quantity of viable cells after treatment with each compound was expressed as a percentage of the viability of DMSO-treated control cells (average of triplicate wells±standard deviation). The toxicity data was analyzed via a two-way ANOVA, with post hoc Dunnet's multiple comparisons test (P<0.05), utilizing GraphPad Prism 6.0 (GraphPad Software, La Jolla, CA).
Percent viable mammalian cells (measured as average absorbance ratio (test agent relative to DMSO) for cytotoxicity analysis of compounds AS005H, AS005J, AS004B, AS005K, AS005A and 005D (tested in triplicates) at 64 and 128 μg/mL against VERO cells using the MTS 3-(4,5-dimethylthiazol-2-yl)-5-(3-carboxymethoxyphenyl)-2-(4-sulfophenyl)-2H-tetrazolium) assay. Dimethyl sulfoxide (DMSO) was used as a negative control to determine a baseline measurement for the cytotoxic impact of each compound. The absorbance values represent an average of a minimum of three samples analyzed for each compound. Error bars represent standard deviation values for the absorbance values.

[6] = system: Enterococcus fecalis Strain SF 24397 NR31970; test: MIC, broth microdilution (CLSI); format: cell-based; details: Enterococcus, Table 7; TSB; read-out: MIC
Protocol: as §1, §2

[7] = system: Enterococcus faecium E417 - HM-965; test: MIC, broth microdilution (CLSI); format: cell-based; details: Enterococcus faecium, E417HM965, Table 7; TSB; read-out: MIC
Protocol: as §1, §2

[8] = system: Enterococcus faecium Patient #2-1 - NR-31909; test: MIC, broth microdilution (CLSI); format: cell-based; details: Enterococcus faecium, Table 7; TSB; read-out: MIC
Protocol: as §1, §2

[9] = system: Enterococcus faecium Patient #3-1 NR-31912; test: MIC, broth microdilution (CLSI); format: cell-based; details: Enterococcus faecium, Table 7; TSB; read-out: MIC
Protocol: as §1

[10] = system: Enterococcus fecalis Strain SF 28073 - NR31972; test: MIC, broth microdilution (CLSI); format: cell-based; details: Enterococcus, Table 7; TSB; read-out: MIC
Protocol: as §1

[11] = system: Enterococcus fecalis Strain SF24413 NR31971; test: MIC, broth microdilution (CLSI); format: cell-based; details: Enterococcus, Table 7; TSB; read-out: MIC
Protocol: as §1

[12] = S613HM334, Table 6, TSB in presence of 4% human serum albumin

| SMILES | MIC ([1]; S613HM334, Table 1, TSB) [µg/mL] | MIC ([1]; S613HM334, Table 5, BHIB) [µg/mL] | MIC ([1]; S613HM334, Table 5, TSB) [µg/mL] | MIC [1, 12] [µg/mL] | MIC ([1]; S613HM334, Table 7, TSB) [µg/mL] | mice protected against a lethal dose (survival) (E. faecium NR 31909) [%] | reduction of bacterial load in internal organs compared with linezolid (E. faecium NR 31909; liver, spleen, kidneys on day 5) | MIC [2] [µg/mL] | MIC [3] [µg/mL] | MIC [4] [µg/mL] | VRE in feces, cecal content and ileal content compared to control mice ([5]; 10 mg/kg or 20 mg/kg once a day, feces as early as 3rd day) | VRE reduction compared with linezolid ([5]; AZM 10 and 20 mg/kg, linezolid 10 mg/kg once daily for 8 days) | toxicity to Caco-2 cells (percent viable cells, MTS) (Caco-2 cells) | toxicity to VERO cells (percent viable cells, MTS) (VERO cells) | MIC [6] [µg/mL] | MIC [7] [µg/mL] | MIC [8] [µg/mL] | MIC [9] [µg/mL] | MIC [10] [µg/mL] | MIC [11] [µg/mL] |
| --- | --- | --- | --- | --- | --- | --- | --- | --- | --- | --- | --- | --- | --- | --- | --- | --- | --- | --- | --- | --- |
| CC(=O)Nc1nnc(S(N)(=O)=O)s1 [Acetazolamide] | 2 (≈ 9 µM) | > 128 | 2 (≈ 9 µM) | > 256 | 2 (≈ 9 µM) | 100 | superior to linezolid | > 64 | > 64 | > 64 | significant reduction | outperformed linezolid | – | – | – | – | – | – | – | – |
| CC(C)(C)C(=O)Nc1nnc(S(N)(=O)=O)s1 [CAI0010, N-(5-Sulfamoyl-1,3,4-thiadiazol-2-yl)pivalamide] | 0.5 (≈ 1.89 µM) | – | – | > 256 | 0.125 (≈ 0.473 µM) | – | – | > 64 | > 64 | > 64 | – | – | non-toxic | non-toxic | – | – | – | – | – | – |
| CC(C)C(=O)Nc1nnc(S(N)(=O)=O)s1 [CAI0011, N-(5-Sulfamoyl-1,3,4-thiadiazol-2-yl)isobutyramide] | 2 (≈ 7.99 µM) | – | – | – | 2 (≈ 7.99 µM) | – | – | > 64 | > 64 | > 64 | – | – | non-toxic | non-toxic | – | – | – | – | – | – |
| CCc1ccc(C(=O)Nc2nnc(S(N)(=O)=O)s2)cc1 [CAI0017, 4-Ethyl-N-(5-sulfamoyl-1,3,4-thiadiazol-2-yl)benzamide] | 1 (≈ 3.2 µM) | – | – | – | 1 (≈ 3.2 µM) | – | – | > 64 | > 64 | > 64 | – | – | non-toxic | non-toxic | – | – | – | – | – | – |
| NS(=O)(=O)c1nnc(NC(=O)C=CC2CCCCC2)s1 [CAI0019, 3-cyclohexyl-N-(5-sulfamoyl-1,3,4-thiadiazol-2-yl)propenamide] | – | – | – | – | 0.007 (≈ 0.0221 µM) | – | – | – | – | – | – | – | – | – | 0.015 (≈ 0.0474 µM) | 0.007 (≈ 0.0221 µM) | 0.003 (≈ 0.00948 µM) | 0.007 (≈ 0.0221 µM) | 0.015 (≈ 0.0474 µM) | 0.015 (≈ 0.0474 µM) |
